# Results: publication PMC6042386, “Molecular diversity and function of jasmintides from Jasminum sambac” (BMC Plant Biology, 2018)
# Where a SMILES comes first, the peptide text is derived from it. Bridges are numbered along the chain shown (N, C = ends). [ ]: non-standard residue; d: D form. pGlu = O=C1CC[C@@H](C(=O)O)N1
# Tests used:
# [1] = Thermal stability assay (boiling water); format: physicochemical; details: boiling water (100 °C), quenched in ice bath 15 min, UPLC peak area before/after, monitored by MALDI-MS, three independent experiments, mean (n = 3), read-out: jasmintide remaining after thermal treatment
# Experimental: (§1) For the thermal stability assay, jS3 were heated in boiling water for 1 h. At each time interval (1.0 h), a 30-μL sample was aliquoted and quenched in an ice bath for 15 min. For the acid stability assay, jS3 and jS4 were incubated in hydrochloric acid (pH 2.0) for 6 h. At each time interval (2, 4 and 6 h), a 30-μL sample was aliquoted and quenched by adding 1 M sodium hydroxide. For the enzymatic stability assay, jS3 and jS4 were incubated for 6 h at the optimal temperature with a buffer solution, as recommended by the manufacturer. At each time interval (2, 4 and 6 h), a 30-μL sample was aliquoted and quenched by adding 1 M hydrochloric acid. For the serum stability assay, jS3 were incubated with 25% human AB-type male serum in phenol red-free Dulbecco’s modified Eagle’s medium at 37 °C for 24 h. At each time interval (4, 8, 12 and 24 h), a 30-μL sample was aliquoted and quenched with 96% ethanol. Samples were kept at 4 °C for 15 min and then centrifuged at 18,000 rpm for 10 min. For all stability assays, the reaction mixture was analyzed by UPLC and monitored by MALDI-MS. The areas under the peak prior to and after treatment were integrated to determine stability. For each stability assay, three independent experiments were performed. At each time point, the sample was quenched by the specific reagent aforementioned and analyzed by UPLC in triplicates.
# T. molitor larvae = test: Effect of jasmintide on the growth of larvae; format: in vivo, Tenebrio molitor
# Experimental: At day 0, 10 T. molitor larvae of similar weights (43 ± 2 mg and 47 ± 2 mg in the treatment and control sets, respectively) were fed 200 mg of a diet containing 1 mg of jS3/g of oats. Every three days, the weights of individual larva were recorded, and larvae were transferred to a new dish with the same amount of supplemented diet to maintain a continuous supply. Three independent biological experiments were carried out over a period of 9 days. The control diet was prepared in the same manner without the addition of jS3. Student’s t-test was used to compare the mean with the control.
# [2] = Acid stability assay (hydrochloric acid, pH 2.0); format: physicochemical; details: hydrochloric acid pH 2.0, 37 °C, up to 6 h; quenched with 1 M sodium hydroxide; UPLC peak area, MALDI-MS; three independent experiments, mean (n = 3); read-out: jasmintide remaining under acidic conditions
# Experimental: as §1
# carboxypeptidase A = test: Enzymatic stability assay, exopeptidase carboxypeptidase A; format: in vitro ADME; details: 37 °C, manufacturer's buffer, up to 6 h, quenched with 1 M hydrochloric acid, UPLC peak area, MALDI-MS, three independent experiments, mean (n = 3), read-out: jS3 remaining intact with carboxypeptidase A
# Experimental: as §1
# [3] = tested on: Tenebrio molitor mealworm larvae; test: Feeding deterrent no-choice assay; format: in vivo; details: 24 h, 29 ± 1 °C in the dark, 30 larvae per concentration
# Experimental: The antifeedant activity was examined using a no-choice assay. Oat flakes were soaked in different concentrations of jS3 (0.5 to 30 mg/g of oat) and lyophilized. The control diet was prepared in the same manner without addition of jS3. Ten T. molitor larvae of similar weights (41 ± 3 mg) were placed in a tissue culture dish with 500 mg of oats. The dishes were transferred into a rearing chamber and kept at 29 ± 1 °C in the dark. After 24 h, the remaining oat flakes were weighed, and the amount consumed was calculated. In total, 30 larvae were used for each concentration, and three independent biological experiments were performed. The feeding deterrence activity was determined as follows: Feeding Deterrence IndexFDI=C−T∗100/C+T
# where C represents the average weight of consumed control diet and T represents the average weight of consumed treatment diet within the groups. The overall differences in feeding amounts were compared to the control and were compared to each other using one-way ANOVA.
# trypsin = test: Enzymatic stability assay, endopeptidase trypsin; format: in vitro ADME; details: 37 °C, manufacturer's buffer, up to 6 h, quenched with 1 M hydrochloric acid, UPLC peak area, MALDI-MS, three independent experiments, mean (n = 3), read-out: jS3 remaining intact with trypsin
# Experimental: as §1
# insect Sf9 cells = test: Co-incubation of insect Sf9 cells with jS3 (morphology, mortality); format: cell-based; details: concentrations up to 100 μM, co-incubation (Figure S6)
# [4] = Human serum stability assay; format: in vitro ADME; details: 25% human AB-type serum; 25% human AB-type male serum in phenol red-free DMEM, 37 °C, up to 24 h; quenched with 96% ethanol; UPLC peak area, MALDI-MS; three independent experiments, mean (n = 3); read-out: jS3 remaining intact after incubation with human serum
# Experimental: as §1
structure (smiles),measurement,setting,value
"CC[C@H](C)[C@H](NC(=O)[C@H](CC(N)=O)NC(=O)[C@@H]1CSSC[C@@H]2NC(=O)[C@H](CC(=O)O)NC(=O)[C@H](CCCNC(=N)N)NC(=O)[C@H](CO)NC(=O)[C@H]([C@@H](C)O)NC(=O)[C@H](CCC(N)=O)NC(=O)[C@@H]3CSSC[C@H](NC(=O)[C@H](C(C)C)NC(=O)[C@H]([C@@H](C)O)NC(=O)[C@H](Cc4c[nH]c5ccccc45)NC(=O)[C@H]([C@@H](C)CC)NC(=O)[C@H]([C@@H](C)CC)NC(=O)[C@H](Cc4ccc(O)cc4)NC(=O)[C@H](CC(N)=O)NC2=O)C(=O)N[C@@H](CCCNC(=N)N)C(=O)N[C@@H](CC(=O)O)C(=O)NCC(=O)N[C@@H](CSSC[C@H](NC(=O)[C@H](CC(C)C)NC(=O)[C@@H]2CCC(=O)N2)C(=O)N[C@@H](CC(C)C)C(=O)N[C@@H](CC(C)C)C(=O)N3)C(=O)N1)C(=O)N[C@@H](CO)C(=O)O [jS3] ([pGlu]LCLLCQTSRDCNYIIWTVCRDGCCNIS-OH; disulfide 3-24, 6-20, 12-25; C-terminus assumed)",remaining at 1 h,[1],> 92%
same,average body weight of the treatment group after nine-day treatment,"T. molitor larvae; after nine days on diet containing 1 mg of jS3 per gram of oat flakes, n = 30 larvae, significantly less than control (47.4 to 71.2 mg)",62.2 mg
same,"average body weight of the treatment group, start","T. molitor larvae; day 0, diet containing 1 mg of jS3 per gram of oat flakes, n = 30 larvae",44.3 mg
same,fatality of larvae during the period of treatment,"T. molitor larvae; nine-day treatment, 1 mg of jS3 per gram of oat flakes",No fatality
same,remaining at 6 h,[2],> 90%
same,remaining at 6 h,carboxypeptidase A,> 80%
same,feeding deterrence index (FDI),"[3]; 1 mg/g of jasmintide in the diet (oat flakes), three independent experiments",42.9%
same,feeding deterrence index (FDI),"[3]; 30 mg/g of jasmintide in the diet (oat flakes), highest value",93.6%
same,remaining at 6 h,trypsin,> 80%
same,change in morphology and mortality rate of Sf9 cells,insect Sf9 cells,insignificant effects
same,remaining at 24 h,[4],> 79%
